Experimental data published in patent publication US8815234B2, “Treatment of human or animal body surface infection” (Insense Limited, priority 2009, dated 2014).

Test system: Trichophyton rubrum
Experiment: In vitro flat bed static diffusion model, kill curves of Trichophyton rubrum
Type: cell-based
Conditions: for effect of peroxidase in disc at lowest concentration compared to the test treatment alone: 1 μg ml^−1 enzyme in disc plus active topical treatment; for potentiation of the effects of the topical treatment by peroxidase within the disc (words): 1, 100 and 500 μg/ml enzyme in disc plus active topical treatment; for relative potency of horseradish peroxidase versus lactoperoxidase in enhancing fungal killing (words): enzyme in disc plus active topical treatment
Method: Test discs were soaked in 50% serum containing 10^7 fungal cells to re-create a high protein environment. They were placed on a gel bed, also containing 50% serum to mimic contact with the nail bed. The discs were dosed with aqueous solutions of either horse radish peroxidase or lactoperoxidase, each set of discs having different dose levels of the enzymes. Control discs were left with no peroxidase of any kind. The experiment was started by applying hydrogen peroxide generating stratified patches (see below) to the surfaces of most of the test discs, and these were left in place for defined periods of time. Some discs were left uncovered as additional experimental controls to determine how well the fungal cells survived when left untreated. At set time-intervals, representative discs were removed for sampling, and the numbers of surviving fungal cells were determined by standard methods.
An in vitro flat bed static diffusion model was utilised, based upon the techniques described in “In vitro diffusion bed, 3-day repeat challenge ‘capacity’ test for antimicrobial wound dressings”, J. Greenman, R. M. S. Thorn, S. Saad, A. Austin International Wound Journal (2006), 3, 322-329.
The test inoculum was prepared by emulsifying mature surface growth biomass of Trichophyton rubrum on potato dextrose agar in Saboraud liquid medium, removing the suspension, vortex mixing, and then allowing large particles to settle out of solution. The resulting suspension was adjusted via spectrophotometry to give a standardised inoculum around 10^7 cfu ml^−1, which is sufficiently dense to enable any fungicidal effects to be detected (>10^3 cfu reduction is seen as indicative of a cidal effect).
A 100 μl volume of the defined inocula was re-suspended in replicate cellulose discs on the surface of a poly-AMPS test bed (the formulation of which is identical to the Layer 1 hydrogel as described in Example 1, but cast as a 25 g gel sheet per 10×10 cm dish), whereby test products can then be applied (FIG. 1). A two layer dressing was tested. The layers were prepared as described in Example 1. Lactoperoxidase or horse radish peroxidase enzymes were prepared by dissolving in analytical water at the required concentration prior to use. It is thought that lactoperoxidase may potentiate any antifungal effects of the novel topical treatment, and for some of the experimental systems cellulose discs were pre-treated with a lactoperoxidase or horseradish peroxidise solution to ascertain differential effects.
The two layer dressings were activated by bringing the two layers together. The hydrogel sheet was placed into contact with the cellulose disc and the dry film then applied to the uppermost surface of the hydrogel sheet. Test beds were incubated at 28° C., and at set time intervals (0, 1, 2, 4 & 24 h); cellulose discs were removed, re-suspended in PBSa, serially diluted and then spiral plated onto Saboraud dextrose agar. After incubation (5 days) the number of dermatophyte survivors at different time points after treatment exposure was determined by colony counting (cfu disc^−1). The results were graphed and analysed using GraphPad Prism (v.4).

Row | Substance | effect of peroxidase in disc at lowest concentration compared to the test treatment alone | potentiation of the effects of the topical treatment by peroxidase within the disc (words) | potentiation of the effects of the topical treatment by peroxidase within the disc (words) (listed as horse radish peroxidise) | relative potency of horseradish peroxidase versus lactoperoxidase in enhancing fungal killing (words) (listed as horse radish peroxidase) | relative potency of horseradish peroxidase versus lactoperoxidase in enhancing fungal killing (words) (listed as horseradish peroxidise) | potentiation of the effects of the topical treatment by peroxidase within the disc (words) (listed as peroxidise)
1 | horseradish peroxidase [Horseradish peroxidise] | has a significant effect | potentiates the effects of the topical treatment in a concentration dependent manner | potentiate the effects of the topical treatment | more potent than lactoperoxidase | more efficacious | 
2 | lactoperoxidase | no significant effect compared to the test treatment alone | potentiate the effects of the topical treatment in a concentration dependant manner |  |  |  | potentiate the effects of the topical treatment
